# Source: the supplement of paper PMC10307832
# Legend:
# Assay in all cases: relative viability (nuclei count vs DMSO), 5 days (fraction); higher = more cells survive
# [1] = compound: CC1=CC(=NN1)NC2=CC(=NC(=N2)/C=C/C3=CC=CC=C3)N4CCN(CC4)C + C[C@]1(O)C[C@@H](c2nc(-c3ccc4ccc(-c5ccccc5)nc4c3)c3c(N)nccn32)C1 [Linsitinib] (partner 1 µM)
# Summary of the method: (§1)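 After 5 days of treatment, lung cancer cells in 1536-well plates were fixed and stained in a single step (final 0.05% Triton X-100, 1% formaldehyde, 1 ug/ml Hoechst) and their nuclei counted on 4× images. Treatment had been applied by pin tool the day after seeding as one drug alone or as a fixed anchor-drug dose with five library-drug doses (not always all listed) in √10 steps. Relative viability is the nuclei count of treated wells divided by that of vehicle wells, and values are medians of duplicate plates.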
# [2] = compound: CC1=CC(=NN1)NC2=CC(=NC(=N2)/C=C/C3=CC=CC=C3)N4CCN(CC4)C + Nc1ncn([C@H]2C[C@H](O)[C@@H](CO)O2)c(=O)n1 [Decitabine] (partner 2 µM)
# Summary of the method: as §1
# [3] = compound: CC1=CC(=NN1)NC2=CC(=NC(=N2)/C=C/C3=CC=CC=C3)N4CCN(CC4)C + O=C(c1cc(Cc2n[nH]c(=O)c3ccccc23)ccc1F)N1CCN(C(=O)C2CC2)CC1 [Olaparib] (partner 8 µM)
# Summary of the method: as §1
# Obatoclax + Linsitinib = compound: COC1=CC(c2cc3ccccc3[nH]2)=N/C1=C\c1[nH]c(C)cc1C [Obatoclax] + C[C@]1(O)C[C@@H](c2nc(-c3ccc4ccc(-c5ccccc5)nc4c3)c3c(N)nccn32)C1 [Linsitinib] (partner 1 µM)
# Summary of the method: as §1
cell line,measurement,setting,value
NCI-H650,relative viability,[1]; first compound 0.08 µM,0.674
same,relative viability,[1]; first compound 0.253 µM,1.06
same,relative viability,[1]; first compound 0.8 µM,0.777
same,relative viability,[1]; first compound 2.53 µM,0.278
same,relative viability,[1]; first compound 8 µM,0.202
same,relative viability,[2]; first compound 0.08 µM,0.314
same,relative viability,[2]; first compound 0.253 µM,0.318
same,relative viability,[2]; first compound 0.8 µM,0.287
same,relative viability,[2]; first compound 2.53 µM,0.246
same,relative viability,[2]; first compound 8 µM,0.157
same,relative viability,[3]; first compound 0.08 µM,0.376
same,relative viability,[3]; first compound 0.253 µM,0.431
same,relative viability,[3]; first compound 0.8 µM,0.416
same,relative viability,[3]; first compound 2.53 µM,0.344
same,relative viability,[3]; first compound 8 µM,0.136
same,relative viability,Obatoclax + Linsitinib; first compound 0.01 µM,0.874
same,relative viability,Obatoclax + Linsitinib; first compound 0.03162 µM,0.757
same,relative viability,Obatoclax + Linsitinib; first compound 0.1 µM,0.329
same,relative viability,Obatoclax + Linsitinib; first compound 0.3162 µM,0.528
same,relative viability,Obatoclax + Linsitinib; first compound 1 µM,0.425
